Test results reported in US12454551B2, “Peptides as inhibitors of fibrotic matrix accumulation” (Max-Planck-Gesellschaft zur Förderung der Wissenschaften …, priority 2019, dated 2025).
Where a name gives a salt, the structure may show the parent alone. Residues, ends and D or L forms follow the SMILES beside them. No end group written: not given here.

Legend:
[1] = test system: B16 melanoma cancer cells; assay: B16 melanoma model in mice (tumor weight); type: in vivo; conditions: B16 melanoma cells (10^6) s.c. in mice; 1 mg peptide s.c. on day 7; tumours weighed on day 12
Experimental: FIG. 3 Prevention of cancer growth by cyclic GLQGE (SEQ ID NO: 5) in form of hydrochloride salt (cyclic GLQGE HCl salt). B16 melanoma cancer cells were injected subcutaneously in mice. On day 7, injection with 1 mg of the peptide or 0.9% NaCl subcutaneously was performed. On day 12 mice were euthanized and tumors removed and weighed. N=11/11 mice. Data presented as mean+SEM.
The cyclic peptide Gly-Leu-Gln-Gly-Glu (cyclic GLQGE; SEQ ID NO: 5) in form of hydrochloride salt was tested for its ability in prevention of cancer growth in a melanoma model in mice. B16 melanoma cancer cells (10^6 cells) were injected subcutaneously in mice. On day 7, injection with 1 mg of the cyclic GLQGE peptide (SEQ ID NO: 5) or 0.9% NaCl (control mice) subcutaneously was performed. On day 12 mice were euthanized and tumours removed and weighed. N=11/11 mice. Results are shown on FIG. 3 as mean+SEM. […] Thus, the cyclic peptide Gly-Leu-Gin-Gly-Glu (SEQ ID NO: 5) represents a promising therapeutic drug for use in the treatment of cancer.

[2] = test system: breast cancer cell line MDA-MB-231; assay: breast cancer model in mice, MDA-MB-231 intratibial (bioluminescence imaging); type: in vivo; conditions: MDA-MB-231 intratibially in CD1 nude mice; 0.1 mg s.c. daily from day 30 for 10 days; read on day 40; vs 0.9% NaCl
Experimental: FIG. 5 Prevention of breast cancer growth by cyclic GLQGE (SEQ ID NO: 5) in form of hydrochloride salt (cyclic GLQGE HCl salt). Cells from the breast cancer cell line MDA-MB-231 were injected intratibially in mice. Starting on day 30, injection with 0.1 mg/mouse/day of the cyclic peptide Gly-Leu-Gln-Gly-Glu (SEQ ID NO: 5) (cyclic GLQGE HCl salt) for 10 days or 0.9% NaCl subcutaneously was performed. On day 40, the size of the tumour was evaluated by bioluminescence imaging (Bioluminescence imaging was performed by detecting photon signal 5 minutes after D-luciferin injection (150 mg/kg) using an “IVIS Lumina II” imaging system. The resulting images were analysed using the software “Living Image”). RLU=relative light units. The number of animals in each group was N=14/7 mice, in two experiments. * p<0.05 as evaluated by t-test. Data are presented as mean+SEM.
The hydrochloride salt of cyclic peptide Gly-Leu-Gln-Gly-Glu (cyclic GLQGE; SEQ ID NO: 5) was tested for its ability in prevention of breast cancer in mice. […] On day 40, the size of the tumor was evaluated by bioluminescence imaging (Bioluminescence imaging was performed by detecting photon signal 5 minutes after D-luciferin injection (150 mg/kg) using an “IVIS Lumina II” imaging system. The resulting images were analyzed using the software “Living Image”). […]

[3] = test system: bleomycin induced lung fibrosis in C57bl/6 mice; assay: bleomycin induced lung fibrosis in mice (total collagen in the lung); type: in vivo; conditions: intratracheal bleomycin on day 0; 1 mg/mouse/day s.c. from day 11 for 10 days; vs bleomycin alone (p<0.05) or with control peptides
Experimental: FIG. 4 Prevention of fibrosis progression by the cyclic peptide Gly-Leu-Gln-Gly-Glu (SEQ ID NO: 5) (acetate salt). Lung fibrosis was induced in 6-week-old male C57bl/6 mice using intratracheal bleomycin instillation at a dose of 0.005 units in 50 μl on day 0. Starting on day 11, cyclic Gly-Leu-Gln-Gly-Glu (cyclic GLQGE; SEQ ID NO: 5) was injected subcutaneously at a dose of 1 mg/mouse/day in 0.9% NaCl for a total of 10 days. The control group only received daily injections of 0.9% NaCl. The number of animals in the four groups was N=14/10/10/9 in three experiments. The cyclic peptide Gly-Leu-Gln-Gly-Glu (Cyclic GLQGE; SEQ ID NO: 5) (acetate salt) was tested and compared to cyclic Ac-Gly-Leu-Asn-Gly-Glu (Cyclic GLNGE; SEQ ID NO: 10) (acetate salt) and to cyclic Ac-Gly-Leu-Hyp-Gly-Glu (Cyclic GLOGE; SEQ ID NO: 15) (acetate salt), *p<0.05. Evaluated by t-test. Data are presented as mean ±SEM.
The cyclic peptide Gly-Leu-Gln-Gly-Glu (cyclic GLQGE (SEQ ID NO: 5) acetate salt) was tested for its ability in prevention of lung fibrosis in mice. Lung fibrosis was induced in 6-week-old male C57bl/6 mice using intratracheal bleomycin instillation at a dose of 0.005 units in 50 μl 0.9% NaCl on day 0. […]

[4] = test system: CCl4 induced liver fibrosis in mice; assay: CCl4 induced liver fibrosis in mice (collagen accumulation in the liver); type: in vivo; conditions: for collagen accumulation in the liver (marker of matrix accumulation): mice, CCl4 for 6 weeks, peptide 25 mg/kg/mouse/day intraperitoneal in NaCl 0.9% from day 32 for 10 days, vs CCl4-treated mice, FIG. 1 and 2
Experimental: FIG. 1 Prevention of fibrosis progression by proline-containing cyclic and amidated linear peptides. Mice were injected for 6 weeks with CCl4 in order to induce liver fibrosis. Starting on day 32 the mice received daily intraperitoneal injections of 25 mg/kg/mouse/day of the peptides in 0.9% NaCl for a total of 10 days. CCl4-treated mice also received NaCl 0.9%. The healthy control group (CT) only received 0.9% NaCl. N=4/10/[…]/8/11/7 in two experiments. The following peptides were tested on CCl4-treated mice: cyclic Pro-Gly-Leu-Gln-Gly-Glu (Cyclic PGLQGE; SEQ ID NO: 6), and compared to two controls: cyclic Pro-Gly-Leu-Asn-Gly-Glu (Cyclic CT1+P: cyclic PGLNGE; SEQ ID NO: 11) and cyclic Pro-Gly-Leu-Hyp-Gly-Glu (Cyclic CT2+P: cyclic PGLOGE; SEQ ID NO: 16). Linear Gly-Leu-Gln-Gly-Glu-NH2 (Linear GLQGE-NH2; SEQ ID NO: 4) was also tested and compared to two controls: linear Gly-Leu-Asn-Gly-Glu-NH2 (Linear CT1—NH2: linear GLNGE-NH2; SEQ ID NO: 9) and linear Gly-Leu-Hyp-Gly-Glu-NH2 (Linear CT2—NH2: linear GLOGE-NH2; SEQ ID NO: 14). * p<0.05. Evaluated by t-test. Data presented as mean+SEM.
FIG. 2 Prevention of fibrosis progression by cyclic peptides and acetylated linear peptides. Mice were injected for 6 weeks with CCl4 in order to induce liver fibrosis. Starting on day 32 the mice received daily intraperitoneal injections of 25 mg/kg/mouse/day of the peptides in 0.9% NaCl for a total of 10 days. CCl4-treated mice also received NaCl 0.9%. The healthy control group (CT) only received 0.9% NaCl. N=5/18/9/9/6/5/4/4 in two experiments. The following peptides were tested on CCl4-treated mice: cyclic Gly-Leu-Gln-Gly-Glu (Cyclic GLQGE; SEQ ID NO: 5), and compared to two controls: cyclic Gly-Leu-Asn-Gly-Glu (Cyclic CT1: cyclic GLNGE; SEQ ID NO: 10) and cyclic Gly-Leu-Hyp-Gly-Glu (Cyclic CT2: cyclic GLOGE; SEQ ID NO: 15). Linear Ac-Gly-Leu-Gln-Gly-Glu (Linear Ac-GLQGE; SEQ ID NO: 3) was also tested and compared to two controls: linear Ac-Gly-Leu-Asn-Gly-Glu (Linear Ac-CT1: linear Ac-GLNGE; SEQ ID NO: 8) and linear Ac-Gly-Leu-Hyp-Gly-Glu (Linear Ac-CT2: linear Ac-GLOGE; SEQ ID NO: 13). * p<0.05, ** p<0.005. Evaluated by t-test. Data presented as mean+SEM.
Mice were injected for 6 weeks with CCl4 in order to induce liver fibrosis. Starting on day 32 the mice received daily intraperitoneal injections of the peptides at a final dose of 25 mg/kg/mouse/day diluted in NaCl 0.9% for a total of 10 days. In these experiments, the following peptides were tested: cyclic peptide Pro-Gly-Leu-Gln-Gly-Glu (SEQ ID NO: 6), cyclic peptide Pro-Gly-Leu-Asn-Gly-Glu (SEQ ID NO: 11), cyclic peptide Pro-Gly-Leu-Hyp-Gly-Glu (SEQ ID NO: 16), linear peptide Gly-Leu-Gln-Gly-Glu-NH2 (SEQ ID NO: 4), linear peptide Gly-Leu-Asn-Gly-Glu-NH2 (SEQ ID NO: 9), linear peptide Gly-Leu-Hyp-Gly-Glu-NH2 (SEQ ID NO: 14).
Mice were injected for 6 weeks with CCl4 in order to induce liver fibrosis. Starting on day 32 the mice received daily intraperitoneal injections of the peptides at a final dose of 25 mg/kg/mouse/day diluted in NaCl 0.9% for a total of 10 days. In these experiments, the following peptides were tested: cyclic peptide Gly-Leu-Gln-Gly-Glu (SEQ ID NO: 5), cyclic peptide Gly-Leu-Asn-Gly-Glu (SEQ ID NO: 10), cyclic peptide Gly-Leu-Hyp-Gly-Glu (SEQ ID NO: 15), linear peptide Ac-Gly-Leu-Gln-Gly-Glu (SEQ ID NO: 3), linear peptide Ac-Gly-Leu-Asn-Gly-Glu (SEQ ID NO: 8), linear peptide Ac-Gly-Leu-Hyp-Gly-Glu (SEQ ID NO: 13).

[5] = test system: TGFβ expression in murine hepatocytes; assay: unstimulated TGFβ expression in murine hepatocytes; type: cell-based; conditions: data not shown

Compound | collagen accumulation in the liver (marker of matrix accumulation) [4] | unstimulated TGFβ expression [5] | also measured
CC(C)C[C@@H]1NC(=O)CNC(=O)[C@H](CCC(=O)O)NC(=O)CNC(=O)[C@H](CCC(N)=O)NC1=O [SEQ ID NO: 5 (HCl salt), Gly-Leu-Gln-Gly-Glu] (HELM PEPTIDE1{E.G.L.Q.G}$PEPTIDE1,PEPTIDE1,1:R1-5:R2$$$V2.0) |  |  | diminution of cancer size (tumor weight) as compared to control mice [1]: approximately 72%; size of the tumor by bioluminescence imaging [2]: significantly (p<0.05) diminished
CC(C)C[C@@H]1NC(=O)CNC(=O)[C@H](CCC(=O)O)NC(=O)CNC(=O)[C@H](CCC(N)=O)NC1=O [SEQ ID NO: 5 (acetate salt), Gly-Leu-Gln-Gly-Glu] (HELM PEPTIDE1{E.G.L.Q.G}$PEPTIDE1,PEPTIDE1,1:R1-5:R2$$$V2.0) |  |  | total amount of collagen in the lung [3]: significantly diminished
CC(C)C[C@@H]1NC(=O)CNC(=O)[C@H](CCC(=O)O)NC(=O)CNC(=O)[C@H](CC(N)=O)NC1=O [SEQ ID NO: 10, Gly-Leu-Asn-Gly-Glu, reference compound] (HELM PEPTIDE1{E.G.L.N.G}$PEPTIDE1,PEPTIDE1,1:R1-5:R2$$$V2.0) | failed to inhibit collagen accumulation |  | 
CC(C)C[C@H](NC(=O)CN)C(=O)N1C[C@@H](O)C[C@H]1C(=O)NCC(=O)N[C@@H](CCC(=O)O)C(N)=O [SEQ ID NO: 14, Gly-Leu-Hyp-Gly-Glu-NH2] |  | had no effect | 
CC(C)C[C@@H]1NC(=O)CNC(=O)[C@H](CCC(=O)O)NC(=O)CNC(=O)[C@@H]2C[C@@H](O)CN2C1=O [SEQ ID NO: 15, Gly-Leu-Hyp-Gly-Glu, reference compound] (HELM PEPTIDE1{E.G.L.[Hyp].G}$PEPTIDE1,PEPTIDE1,1:R1-5:R2$$$V2.0) | failed to inhibit collagen accumulation |  | 
Ac-GLQGE [SEQ ID NO: 3, Ac-Gly-Leu-Gln-Gly-Glu] | able to significantly reduce CCl4-induced collagen accumulation |  | 
GLNGE-NH2 [SEQ ID NO: 9, Gly-Leu-Asn-Gly-Glu-NH2] |  | had no effect | 
GLQGE-NH2 [SEQ ID NO: 4, Gly-Leu-Gln-Gly-Glu-NH2] | able to significantly reduce CCl4-induced collagen accumulation | efficiently inhibits | 
Gly-Leu-Gln-Gly-Glu (GLQGE; SITE 1..5 peptide bond between the amino-terminus and the carboxyl-terminus; listed as Homo sapiens) [SEQ ID NO: 5] | able to significantly reduce collagen accumulation |  | efficiency in reducing collagen accumulation in comparison to the cyclic peptide with proline Pro-Gly-Leu-Gln-Gly-Glu (SEQ ID NO: 6) ([4]; CCl4 liver fibrosis in mice, comparison of Y-axis values of FIGS. 1 and 2, p<0.001): more efficient in reducing collagen accumulation; inhibitory effect on collagen accumulation compared to linear Gly-Leu-Gln-Gly-Glu-NH2 (SEQ ID NO: 4) or Ac-Gly-Leu-Gln-Gly-Glu (SEQ ID NO: 3) ([4]; chemically induced chronic liver damage in mice): larger inhibitory effect
PGLQGE [SEQ ID NO: 6] | able to significantly reduce collagen accumulation |  | 
